Drawing on ChEMBL document CHEMBL1133334, “Synthesis and pharmacology of new enantiopure delta(3)-4-arylkainoids” (Bioorg Med Chem Lett, 2000), this text covers Kd for 7 compounds.

The test concerns the target Glutamate NMDA receptor. Briefly: Compound was tested for agonistic activity at the N-methyl-D-aspartate glutamate receptor obtained from the rat cortical wedge preparation. The format is functional. To be noted: read-out: KD app.
Regarding `O=C(O)CC1=C(c2ccccc2)CN[C@@H]1C(=O)O`, the Kd came out at 560 µM.
Under `O=C(O)CC1=C(c2ccoc2)CN[C@@H]1C(=O)O` stands 85 µM; under `O=C(O)CC1=C(c2cccs2)CN[C@@H]1C(=O)O`, 20 µM.
Under `COc1ccccc1C1=C(CC(=O)O)[C@@H](C(=O)O)NC1` stands 380 µM.
On to `O=C(O)CC1=C(c2ccsc2)CN[C@@H]1C(=O)O`, for which the Kd was 45 µM.
In the case of `O=C(O)CC1=C(c2ccc3ccccc3c2)CN[C@@H]1C(=O)O`, the Kd came out at 250 µM.
With `O=C(O)CC1=C(c2ccco2)CN[C@@H]1C(=O)O`, the Kd was found to be 70 µM.
